The source of these data is patent publication US4686215A, “Pharmaceutical composition and method for treating tumors susceptible to 2-carbamoylaziridine” (priority 1976, dated 1987).

SMILES strings stand for the structures.

The conditions of series [1]: prior art compound; cited from earlier work.
Series [2] deals with carcinosarcoma DS. The conditions noted are these: known drugs, prior art; cited from earlier work.
Series [3] deals with SA-45. Put plainly: action in rats with SA-45 at late stages of tumor development (17 days after implantation). The series is classed as in vivo, rat. Particulars: group II; 10 animals; i.v. 1500 mg/kg, 17 days after tumor implantation. As to the method: (§1) Non-linear male rats with the starting weight 120-150 g were used in the experiments described hereinunder in Examples 1-4. All the animals were administered intravenously a single dose of the pharmaceutical composition in the form of the concentrated solution (10-30%) of the active principle in distilled water at a rate of 1500 mg/kg. The animals were decapitated on the 20th say from the day of the administration. All the animals received the usual laboratory ration.
The action of the pharmaceutical composition consisting of 30% solution of the active principle above formula where R is NH2, in distilled water was tested in rats with SA-45 at late stages of tumor development. The composition was administered 17 days after tumor implantation. The results of the experiment are presented in Table 4 where I--control animals, II--rats which were administered the pharmaceutical composition.

Series [4] is described as follows: toxicity (LD50). The conditions noted are these: compared with prior art. The series is classed as in vivo.
Series [5] relates to implanted mammary gland cancer (RMGC-1). Put plainly: action on tumor growth in rats with implanted mammary gland cancer RMGC-1, early stage (24 hours after implantation). In kind it is in vivo, rat. Particulars: 10 animals. On the procedure: as §1
The action of the pharmaceutical composition consisting of 30% solution of the active principle of the above formula where R is NHNH2, in distilled water on tumor growth was tested in rats with implanted mammary gland cancer (RMGC-1). The results of the experiments are presented in Table 1, where I--control animals, II--rats which were administered the pharmaceutical composition, III--rats which were administered the same composition against the background of 90 minutes' hyperglycemia. The animals of groups II and III were administered the composition 24 hours after tumor implantation.

Series [6] relates to implanted SA-45. As to the kind of experiment: action in rats with implanted SA-45 at early stages of tumor development (48 hours after implantation). In kind it is in vivo, rat. The conditions noted are these: group II; 10 animals; i.v. 1500 mg/kg, 48 hours after tumor implantation. On the procedure: as §1
The action of the same pharmaceutical composition as in Example 1 was tested in rats with implanted SA-45 at early stages of tumor development. The pharmaceutical composition was administered 48 hours after tumor implantation. The results of the experiment are presented in Table 3, where I--control group, II--rats which were administered pharmaceutical composition.

For series [7], the system named is implanted RMCC-1. Put plainly: action in rats with implanted RMCC-1 at late stage of tumor development (15 days after implantation). The series is classed as in vivo, rat. The conditions noted are these: group II, i.v. 1500 mg/kg. On the procedure: as §1
The action of the same pharmaceutical composition as in Example 1 was tested in rats with implanted RMCC-1 at late stage of tumor development. The pharmaceutical composition was administered 15 days after tumor implanatation, the average weight of the tumor being 35 g. The groups of the animals are designated as in Example 1. None of the controls survived till the day of decapitation (the 20th day after the administration of the pharmaceutical composition to group II).

Where [8] appears, read: group II, single i.v. dose 1500 mg/kg, 24 hours after tumor implantation, 20th day.
The mark [9] stands for this setting: group III, against the background of 90 minutes' hyperglycemia, i.v. 1500 mg/kg, 24 hours after implantation.
Where [10] appears, read: 6 animals, 15 days after tumor implantation, average tumor weight 35 g.

In the case of `N#CC1CN1C(N)=O` (centres unmarked) [1-carbamoyl-2-cyano-aziridine], in series [1], the LD50 is on record as 1 250 mg/kg. In series [2], the “cure of rats with carcinosarcoma DS” value is listed as 47.4%.
Regarding `NC(=O)C1CN1` (centres unmarked) [2-carbamoylaziridine], in series [3], the “Complete disappearance of the tumor (animals)” value came to 6, the “No effect (animals)” value came to 2 and the “Partial disappearance of the tumor (animals)” value came out at 2. Besides, in series [4], the therapeutic index entry was “considerably higher”.
As for `NNC(=O)C1CN1` (centres unmarked) [active principle where R is NHNH2], the “Complete disappearance of the tumor (animals)” value in series [5] (setting [8]) worked out at 8; in series [5] (setting [9]), 7; in series [6] it was 3; in series [7] (setting [10]) it was 3. Moreover, the figures for the “No effect (animals)” value in series [5] (setting [8]), in series [5] (setting [9]) and in series [6] were 2, 1 and 4, respectively. Further, the figures for the “Partial disappearance of the tumor (animals)” value in series [5] (setting [9]), in series [6] and in series [7] (setting [10]) were 2, 3 and 3, respectively. Further, the “Life time increased by” value in series [7] (animals with partial disappearance of the tumor, 15 days after implantation) was determined as 50%.
